The numbers were not newly measured in patent EP1033131B1, “Composition in the form of a drink having a delayed alcohol aversion effect” (Semenov, Sergei Petrovich, priority 1997, dated 1999), which cites them from elsewhere.

The conditions of data set [1]: for Anregungseffekt der Alkoholwirkung / alkoholische Anregung: result in words.
The next data set concerns Ratten. The following applies: in vivo.
The next data set has as its system Cholinesterase. The following applies: factor of reduction.
For data set [2] the following is noted: in vivo.

Turning to `CCOC1=C(OCC)C(C(O)CO)OC1=O` (centres unmarked) [2,3-Diethylester der Ascorbinsäure], the “Anregungseffekt der Alkoholwirkung / alkoholische Anregung” value in data set [1] is “beeinflusst”. Further, the “Verlaufsschwere des Alkoholentzugssyndroms” value with Ratten was “vermindert”.
As to `CCOC(=O)C(O)=C(O)C(O)C(O)CO` (centres unmarked) [1-Ethylester der Ascorbinsäure], in data set [1] (factor of shortening), the “Zeitraum der Anregung, verkürzt mit dem Quotienten” value is 2. In addition, the “Anregungseffekt der Alkoholwirkung / alkoholische Anregung” value in data set [1] is “vermindern”. Further, the “Aktivität der Cholinesterase, vermindert mit dem Quotienten” value with Cholinesterase is over 2.
For 3,6-Diethylester der Ascorbinsäure, the “Dauer des narkotischen Effekts des Alkohols” value in data set [2] is given as “vermindert”.
Consider 2,6-Diethylester der Ascorbinsäure, for which the “Stärke der alkoholischen Anregung, vermindert mit dem Quotienten” value in data set [1] (factor of reduction) is 4. Moreover, in data set [1] (in vivo), the “Eintreten der Anregungsphase” value is “verlangsamt”. Moreover, the “Dauer der alkoholischen Anregung, vermindert um” value in data set [1] (percent reduction) is 25%. Further, the “Verlaufsschwere des Alkoholentzugssyndroms” value with Ratten was “vermindert”. The “Dauer des narkotischen Effekts des Alkohols” value in data set [2] is on record as “vermindert”.
